Here are results for one compound from the NIST ThermoML archive (doi:10.1016/j.jct.2012.02.005).

± gives the expanded uncertainty stated by the source.

For data set [1] the following is noted: Crystal; DTA.
The nature of data set [2]: Molar enthalpy of transition or fusion. The settings on record: Crystal; DSC.

For the compound `c1ccc2nsnc2c1` [2,1,3-benzothiadiazole], in data set [1], the Triple point temperature was 316.96 ± 0.39 K. For the same compound, the “Molar enthalpy of transition or fusion” value in data set [2] amounted to 3.9 ± 0.0932 kcal/mol.
